Where two headings read alike, the source gives them in different places.
How the values were obtained:
[1] = test system: P. falciparum 3D7; experiment: In vitro growth assay with flow cytometry, P. falciparum 3D7; assay type: cell-based, Plasmodium falciparum
Method: (§1) Erythrocytes infected with P. falciparum 3D7 and the knockout strain for the PfSR25 receptor (PfSR25-) were kept in 175 cm^2 culture bottles (Greiner Bio-One) containing RPMI 1640 with 0.5% NaHCO3, 0.04% sulfate gentamicin, 0.05% hypoxanthine and supplemented with 0.5% AlbuMAX I (Gibco). The culture bottles were maintained at 37 °C and an atmosphere with 90% N2, 5% O2 and 5% CO2 Parasitemia was determined from a blood smear stained with Panotic Rapid (Laborclin).
(§2) Red blood cells infected with P. falciparum (iRBC) asynchronously with 0.3% initial parasitemia and 1% hematocrit were incubated with different concentrations of compounds ranging from 0.0488 µM to 50 µM, for 72 h at 37 °C under mixture of gases. The control group was treated with solvent Dimethyl Sulfoxide (DMSO) (v/v); with the highest concentration of solvent bring 0.25%.
(§3) Parasitemia was determined from the dot plots (side scatter versus fluorescence) of at least […] acquired on an Accuri C6 flow cytometer (Becton Dickinson). Initial gating was carried out with unstained, uninfected erythrocytes to account for erythrocyte autofluorescence.
(§4) After 72 h, iRBCs were stained with nucleic acid marker SYBR Green I (1X) (Invitrogen) and mitochondria marker based on membrane potential MitoTracker Deep Red (50 nM) (Invitrogen), and were incubated for 20 min. at 37 °C. The final parasitemia was obtained by flow cytometer using a BD Accuri C6 Flow Cytometer, collecting 10^³ cells. Dot plots using FlowJo V10.6.2 software determined Parasitemia. At least three independent experiments were performed in triplicate to calculate the IC50 values for each drug.
In order to identify potential antimalarials present in the library of compounds derived from the 1H-1,2,3-triazoles and 2H-1,2,3-triazoles, we used a culture of P. falciparum (3D7) to perform the screening tests of the compounds. To assess parasitemia at the end of the parasites incubation with the compounds for 72 h, we used a double-label: (1) SYBR Green I to mark DNA and (2) MitoTracker Deep Red as a mitochondria marker. The latter being dependent on the membrane potential, we ensured that only the marking and selection of viable parasites occurred.

[2] = test system: P. falciparum PfSR25- (knockout strain for the PfSR25 receptor); experiment: In vitro growth assay with flow cytometry, PfSR25- knockout strain; assay type: cell-based, Plasmodium falciparum; conditions: for IC50: 72 h; for IC50 for the knockout strain compared with the 3D7 strain: PfSR25- versus 3D7
Method: as §1, §2, §3, §4
We also assessed the role of PfSR25 in terms of its susceptibility to compounds with a better antimalarial activity (9, 13, 19, 21, 22, 24 and 29) and compounds with less activity (21) based on the results obtained with the 3D7 screening. Thus, the tests were carried out like that described above and are represented in Figure 5. However, we used the knockout strain for the receptor-like PfSR25- for the tests.

[3] = test system: HEK293 cells; assay type: cell-based, human; conditions: 72 h; for survival of HEK293 cells (MTT): 0.0488–50 µM; for toxicity in HEK 293 cells (MTT): at the tested concentrations (0.0488–50 µM)
Method: Human Embryonic Kidney Cells (HEK293) were kept in 75 cm^2 culture bottles (Greiner Bio-One) at 37 °C, 5% CO2 containing Dulbecco’s Minimal Essential Medium (DMEM), added with 10% fetal bovine serum, 1% Streptomycin and Penicillin and 3.7 g/L of NaHCO3 (Sigma). Cell passages were performed with trypsin-EDTA (Invitrocell). The number of cells was monitored by counting in a Neubauer chamber.
To evaluate the toxicity of the triazole compounds in mammalian cells, Human Embryonic Kidney cells (HEK293). Cells were plated in flat-bottom 96-well plates at a density of 10^4 cells per well and incubated for 24 h in 150 µL media at 37 °C, 5% CO2. Cells were then treated with different concentrations of each compound, ranging from 0.0488 µM to 50 µM in 200 µL DMEM for 72 h at 37 °C and 5% CO2. Cells treated with DMSO (v/v), with the highest concentration of solvent at 0.25% were used as control. After incubation, 40 µL of MTT reagent (solution 5 mg/mL in PBS) was added to each well, and cells were incubated for further 3 h at 37 °C and 5%CO2 [35]. The media was removed, and 100 µL of DMSO was added in each well. The plates were agitated in a shaker for 10 min to dissolve precipitates. The absorbance was read at 570 nm in a FlexStation 3 (Molecular Devices). Three experiments were performed independently in triplicates.

[4] = assay type: physicochemical; conditions: in our experimental conditions
Excerpt: The methods used to prepare the 1-aryl-1H-1,2,3-triazoles and 2-aryl-2H-1,2,3-triazoles (54 examples) involved classical chemical transformations, and all evaluated compounds were from the group’s molecular bank and were present in other published works. […] This information can be important for future studies.

[5] = test system: P. falciparum 3D7; conditions: cited from earlier work
[6] = test system: P. falciparum Dd2; conditions: cited from earlier work
[7] = Plasmodium falciparum, 3D7, 72 h, P. falciparum 3D7, 72 h, 0.0488–50 µM, ± standard error of the mean, read-out: IC50
[8] = P. falciparum 3D7, 72 h, 0.0488–50 µM, ± standard error of the mean, read-out: IC50

## C[C@@H]1CC[C@H]2[C@@H](C)C(=O)O[C@@H]3O[C@@]4(C)CC[C@@H]1[C@]32OO4 [Artemisinin, reference compound]
[1]; Plasmodium falciparum, 3D7, 72 h, 3D7, positive control […] to 160 nM, 72 h, unit inferred, read-out: IC50 (dose-response curve, Figure 3A)
  IC50: 0.0062 ± 0.00073 µM
[2]; Plasmodium falciparum, read-out: IC50 (dose-response curve, Figure 3B)
  IC50: 0.0058 ± 0.00172 µM

## CCOCc1cn(-c2ccc(Cl)cc2)nn1 [Compound 1]
[1]; [7]
  IC50: 11.7 ± 0.74 µM

## CCOCc1cn(-c2cc(Cl)cc(Cl)c2)nn1 [Compound 2]
[1]; [7]
  IC50: 15.4 ± 2.26 µM

## CCCOCc1cn(-c2cc(Cl)cc(Cl)c2)nn1 [Compound 3]
[1]; [7]
  IC50: 14.5 ± 1.71 µM

## CCCOCc1cn(-c2cc(Cl)ccc2Cl)nn1 [Compound 4]
[1]; [7]
  IC50: 20.4 ± 0.73 µM

## CCCCOCc1cn(-c2cc(Cl)cc(Cl)c2)nn1 [Compound 5]
[1]; [7]
  IC50: 23.9 ± 2.01 µM

## CCOC(=O)c1cn(-c2ccccc2)nn1 [Compound 6]
[1]; [7]
  IC50: 12.8 ± 3.02 µM

## O=C(OCc1cn(-c2ccccc2)nn1)c1ccccc1 [Compound 7]
[1]; [7]
  IC50: 22.9 ± 0.34 µM

## O=C(OCc1cnn(-c2ccccc2)n1)c1ccccc1 [Compound 8]
[1]; [8]
  IC50: 27.5 ± 1.26 µM
[1]; [7]
  IC50: > 25 µM

## CCCCCCCCCC(=O)OCc1cn(-c2ccc(Cl)cc2)nn1 [Compound 9]
[2]
  IC50 for the knockout strain compared with the 3D7 strain: lower IC50 values for the knockout strain
[2]; Plasmodium falciparum
  IC50: 1.55 ± 0.55 µM
[3]
  survival of HEK293 cells (MTT): above 80%
  toxicity in HEK 293 cells (MTT): no toxicity

## CCCCCCCCCC(=O)OCc1cn(-c2cc(Cl)cc(Cl)c2)nn1 [Compound 10]
[1]; [7]
  IC50: 14.6 ± 0.29 µM

## CCCCCCCCCC(=O)OCc1cn(-c2ccc(OC)cc2)nn1 [Compound 11]
[1]; [7]
  IC50: 23.5 ± 2.77 µM

## COc1ccc(-n2cc(COC(=O)c3ccccc3)nn2)cc1 [Compound 12]
[1]; [7]
  IC50: 13.5 ± 1.12 µM

## ON=Cc1cn(-c2ccc(Cl)cc2)nn1 [Compound 13]
[1]; [8]
  IC50: 6.67 ± 1.86 µM
[1]; [7]
  IC50: < 10 µM
[2]
  IC50 for the knockout strain compared with the 3D7 strain: lower IC50 values for the knockout strain
[2]; Plasmodium falciparum
  IC50: 0.89 ± 0.39 µM
[3]
  survival of HEK293 cells (MTT): above 80%
  toxicity in HEK 293 cells (MTT): no toxicity

## O/N=C/c1cn(-c2cc(Cl)ccc2Cl)nn1 [Compound 14]
[1]; [7]
  IC50: 21.5 ± 0.84 µM

## C(=N\Nc1ccccc1)/c1cnn(-c2ccccc2)n1 [Compound 15]
[1]; [7]
  IC50: 18.1 ± 1.92 µM

## Clc1ccc(N/N=C/c2cnn(-c3ccccc3)n2)cc1 [Compound 16]
[1]; [8]
  IC50: 9.29 ± 1.01 µM
[1]; [7]
  IC50: < 10 µM

## Fc1ccc(N/N=C/c2cnn(-c3ccccc3)n2)cc1 [Compound 17]
[1]; [7]
  IC50: 14.7 ± 1.28 µM

## Clc1ccc(N/N=C/c2cn(-c3ccc(Cl)cc3)nn2)cc1 [Compound 18]
[1]; [7]
  IC50: 17.6 ± 1.07 µM

## Fc1ccc(N/N=C/c2cn(-c3ccc(Cl)cc3)nn2)cc1 [Compound 19]
[1]; [8]
  IC50: 8.45 ± 2.25 µM
[1]; [7]
  IC50: < 10 µM
[2]
  IC50 for the knockout strain compared with the 3D7 strain: lower IC50 values for the knockout strain
[2]; Plasmodium falciparum
  IC50: 2.24 ± 0.77 µM
[3]
  survival of HEK293 cells (MTT): above 80%
  toxicity in HEK 293 cells (MTT): no toxicity

## Clc1ccc(-n2cc(/C=N/Nc3cc(Cl)ccc3Cl)nn2)cc1 [Compound 20, (E)-1-(4-chlorophenyl)-4-((2-(2,5-dichlorophenyl)hydrazono)methyl)-1H-1,2,3-triazole]
[1]; [7]
  IC50: 13.6 ± 1.2 µM
other
  melting point: 181 to 182 °C

## Clc1cc(Cl)cc(-n2cc(/C=N/Nc3ccc(Br)cc3)nn2)c1 [Compound 21, (E)-4-((2-(4-bromophenyl)hydrazono)methyl)-1-(3,5-dichlorophenyl)-1H-1,2,3-triazole]
[1]; [8]
  IC50: 29.3 ± 0.34 µM
[1]; [7]
  IC50: > 25 µM
[2]
  IC50 for the knockout strain compared with the 3D7 strain: lower IC50 values for the knockout strain
[2]; Plasmodium falciparum
  IC50: 12.4 ± 2.51 µM

## Cc1ccc(C)c(N/N=C/c2cn(-c3cc(Cl)cc(Cl)c3)nn2)c1 [Compound 23]
[1]; [8]
  IC50: 9.23 ± 1.68 µM
[1]; [7]
  IC50: < 10 µM

## COc1ccc(-n2cc(/C=N/Nc3ccccc3)nn2)cc1 [Compound 24]
[2]
  IC50 for the knockout strain compared with the 3D7 strain: lower IC50 values for the knockout strain
[2]; Plasmodium falciparum
  IC50: 0.99 ± 0.25 µM
[3]
  survival of HEK293 cells (MTT): above 80%
  toxicity in HEK 293 cells (MTT): no toxicity

## COc1ccc(-n2cc(/C=N/Nc3ccc(Cl)cc3)nn2)cc1 [Compound 25, (E)-4-((2-(4-chlorophenyl)hydrazono)methyl)-1-(4-methoxyphenyl)-1H-1,2,3-triazole]
[1]; [8]
  IC50: 9 ± 3.27 µM
[1]; [7]
  IC50: < 10 µM

## Clc1ccc(Cl)c(N/N=C/c2cn(-c3cc(Cl)ccc3Cl)nn2)c1 [Compound 26, (E)-1-(2,5-dichlorophenyl)-4-((2-(2,5-dichlorophenyl)hydrazono)methyl)-1H-1,2,3-triazole]
[1]; [8]
  IC50: 9.4 ± 2.87 µM
[1]; [7]
  IC50: < 10 µM
other
  melting point: 200 to 201 °C

## O=C(N/N=C/c1cn(-c2ccccc2)nn1)c1ccncc1 [Compound 27]
[1]; [7]
  IC50: 23.1 ± 2.58 µM

## O=C(N/N=C/c1cn(-c2ccc(Cl)cc2)nn1)c1ccncc1 [Compound 28]
[1]; [7]
  IC50: 14.5 ± 1.13 µM

## O=C(N/N=C/c1cn(-c2cc(Cl)cc(Cl)c2)nn1)c1ccncc1 [Compound 29, (E)-N′-((1-(3,5-dichlorophenyl)-1H-1,2,3-triazol-4-yl)methylene)isonicotinohydrazide]
[1]; [8]
  IC50: 6.96 ± 1.44 µM
[1]; [7]
  IC50: < 10 µM
[2]; Plasmodium falciparum
  IC50: 9.91 ± 2.94 µM
[3]
  survival of HEK293 cells (MTT): above 80%
  toxicity in HEK 293 cells (MTT): no toxicity

## COc1ccc(-n2cc(/C=N/NC(=O)c3ccncc3)nn2)cc1 [Compound 30]
[1]; [7]
  IC50: 23.2 ± 1.94 µM

## O=C(N/N=C/c1cnn(-c2ccccc2)n1)c1ccncc1 [Compound 31]
[1]; [7]
  IC50: 20.2 ± 0.79 µM

## COc1ccc(-n2cc(/C=N/Nc3ccc(Br)cc3)nn2)cc1 [Compound 52, (E)-4-((2-(4-bromophenyl)hydrazono)methyl)-1-(4-methoxyphenyl)-1H-1,2,3-triazole]
[4]
  solubilization: weren’t able to be solubilized
other
  melting point: 230 to 231 °C

## COc1ccc(-n2cc(/C=N/Nc3ccc(F)cc3)nn2)cc1 [Compound 53, (E)-4-((2-(4-fluorophenyl)hydrazono)methyl)-1-(4-methoxyphenyl)-1H-1,2,3-triazole]
[4]
  solubilization: weren’t able to be solubilized
other
  melting point: 195 to 197 °C

## COc1ccc(-n2cc(/C=N/Nc3cc(C)ccc3C)nn2)cc1 [Compound 54, (E)-4-((2-(2,5-dimethylphenyl)hydrazono)methyl)-1-(4-methoxyphenyl)-1H-1,2,3-triazole]
[4]
  solubilization: weren’t able to be solubilized

## CCOC(=O)C1CN(Cc2c[nH]nn2)c2cc(Cl)c(F)cc2C1=O (stereo not drawn) [III]
[5]
  IC50: 1.33 µM

## O=[N+]([O-])c1ccc(-n2cc(COc3ccc4cc(Br)ccc4c3)nn2)cc1 [I]
[5]
  IC50: 14.7 µM
[6]
  IC50: 13.6 µM

## (E)-1-(3,5-dichlorophenyl)-4-((2-(2,5-dimethylphenyl)hydrazono)methyl)-1H-1,2,3-triazole [Compound 22]
[1]; [8]
  IC50: 5.56 ± 0.47 µM
[2]; PfSR25- knockout strain, ± standard error of the mean, read-out: IC50
  IC50: 4.41 ± 0.6 µM
[2]
  IC50 for the knockout strain compared with the 3D7 strain: lower IC50 values for the knockout strain
[3]
  survival of HEK293 cells (MTT): above 80%
  toxicity in HEK 293 cells (MTT): no toxicity

— article PMC7465636 (Biomolecules, 2020)
